From patent US6441195B1, “Substituted sulphonylamino(thio) carbonyl compounds” (Bayer Aktiengesellschaft, priority 1995, dated 2002)

How the values were obtained:
Type in all cases: in vivo
Sorghum [1] = assay: Pre-emergence test/Greenhouse, Sorghum; conditions: after three weeks
How it was run: (§1)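 In this greenhouse test the application rate per unit area, not the concentration of the preparation, defines the dose; the emulsified preparation is applied to soil about 24 h post-sowing. Plants are scored for % damage versus untreated control after three weeks.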

Maize [2] = assay: Pre-emergence test/Greenhouse, Maize; conditions: in vivo
How it was run: as §1

weeds [3] = assay: Post-emergence test (greenhouse), activity against weeds; conditions: in words
Experimental: (§2) Solvent: 5 parts by weight of acetone
(§3) Emulsifier: 1 part by weight of alkylaryl polyglycol ether
(§4) To produce a suitable preparation of active compound, 1 part by weight of active compound is mixed with the stated amount of solvent, the stated amount of emulsifier is added and the concentrate is diluted with water to the desired concentration.
(§5) Test plants which have a height of 5-15 cm are sprayed with the preparation of the active compound in such a way as to apply the particular amounts of active compound desired per unit area. The concentration of the spray liquor is chosen so that the particular amounts of active compound desired are applied in 2000 l of water/ha.
(§6) After three weeks, the degree of damage to the plants is rated in % damage in comparison to the development of the untreated control.
(§7) 0%=no action (like untreated control)

Maize [4] = assay: Post-emergence test/greenhouse, Maize; conditions: greenhouse, 60 g of ai./ha, after three weeks
Experimental: as §2, §3, §4, §5, §6, §7

Lolium [5] = assay: Pre-emergence test/Greenhouse, Lolium; conditions: after three weeks
How it was run: as §1

Digitaria = assay: Post-emergence test/greenhouse, Digitaria; conditions: greenhouse, after three weeks
Experimental: as §2, §3, §4, §5, §6, §7

Solanum = assay: Pre-emergence test/Greenhouse, Solanum; conditions: after three weeks
How it was run: as §1

Echinochloa = assay: Post-emergence test/greenhouse, Echinochloa; conditions: greenhouse, after three weeks
Experimental: as §2, §3, §4, §5, §6, §7

Stellaria = assay: Post-emergence test/greenhouse, Stellaria; conditions: greenhouse, after three weeks
Experimental: as §2, §3, §4, §5, §6, §7

weeds [6] = assay: Pre-emergence test (greenhouse), activity against weeds; conditions: in words
How it was run: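 Compound formulated in acetone with alkylaryl polyglycol ether emulsifier, diluted in water, and watered onto soil about 24 h after sowing, dosed by application rate per unit area. Damage rated after three weeks as % versus untreated control (0% = no action).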

Poa = assay: Pre-emergence test/Greenhouse, Poa; conditions: after three weeks
How it was run: as §1

Sorghum [7] = assay: Post-emergence test/greenhouse, Sorghum; conditions: greenhouse, after three weeks
Experimental: as §2, §3, §4, §5, §6, §7

Amaranthus = assay: Post-emergence test/greenhouse, Amaranthus; conditions: greenhouse, after three weeks
Experimental: as §2, §3, §4, §5, §6, §7

Matricaria [8] = assay: Pre-emergence test/Greenhouse, Matricaria; conditions: after three weeks
How it was run: as §1

Matricaria [9] = assay: Post-emergence test/greenhouse, Matricaria; conditions: greenhouse, after three weeks
Experimental: as §2, §3, §4, §5, §6, §7

Ambrosia = assay: Pre-emergence test/Greenhouse, Ambrosia; conditions: after three weeks
How it was run: as §1

Gallium = assay: Post-emergence test/greenhouse, Gallium; conditions: greenhouse, after three weeks
Experimental: as §2, §3, §4, §5, §6, §7

Lolium [10] = assay: Post-emergence test/greenhouse, Lolium; conditions: greenhouse, after three weeks
Experimental: as §2, §3, §4, §5, §6, §7

Soya beans = assay: Pre-emergence test/Greenhouse, Soya beans; conditions: in vivo
How it was run: as §1

Compound | degree of damage to the plants (% damage vs untreated control), Sorghum (Sorghum [1]; 60 g of ai./ha) [%] | degree of damage to the plants (% damage vs untreated control), Maize (Maize [2]) [%] | activity against weeds (weeds [3]) | degree of damage to the plants (% damage vs untreated control), Lolium (Lolium [5]; 60 g of ai./ha) [%] | degree of damage, Digitaria (Digitaria; 60 g of ai./ha) [%] | degree of damage to the plants (% damage vs untreated control), Solanum (Solanum; 60 g of ai./ha) [%] | degree of damage, Echinochloa (Echinochloa; 60 g of ai./ha) [%] | degree of damage, Stellaria (Stellaria; 60 g of ai./ha) [%] | activity against weeds (weeds [6]) | degree of damage to the plants (% damage vs untreated control), Poa (Poa; 60 g of ai./ha) [%] | degree of damage, Sorghum (Sorghum [7]; 60 g of ai./ha) [%] | degree of damage, Amaranthus (Amaranthus; 60 g of ai./ha) [%] | degree of damage to the plants (% damage vs untreated control), Matricaria (Matricaria [8]; 60 g of ai./ha) [%] | degree of damage, Matricaria (Matricaria [9]; 60 g of ai./ha) [%] | degree of damage to the plants (% damage vs untreated control), Ambrosia (Ambrosia; 60 g of ai./ha) [%] | degree of damage, Gallium (Gallium; 60 g of ai./ha) [%] | degree of damage, Lolium (Lolium [10]; 60 g of ai./ha) [%] | degree of damage to the plants (% damage vs untreated control), Soya beans (Soya beans) [%] | other results
CCOn1c(CC)nn(C(=O)NS(=O)(=O)c2c(C)csc2C(=O)OC)c1=O [Example 38] | 60 | 0 | very strong activity against weeds | 95 | 70 | 95 | 90 | 95 | very strong activity against weeds | 70 | 95 | 100 | 95 | 95 | 95 | – | – | – | degree of damage, Maize (Maize [4]): 10%
CCOC(=O)c1scc(C)c1S(=O)(=O)NC(=O)n1nc(OCC)n(C2CC2)c1=O [Example 63] | 80 | 10 | very strong activity against weeds | 100 | 50 | 100 | 90 | 100 | very strong activity against weeds | 95 | 80 | 100 | 100 | 95 | 100 | 90 | 70 | – | –
CCCOc1nn(C(=O)NS(=O)(=O)c2c(C)cccc2C(=O)OC)c(=O)n1C [Example 140] | – | – | very strong activity against weeds | – | – | – | – | – | very strong activity against weeds | – | – | – | – | – | – | – | – | 10 | degree of damage to the plants (% damage vs untreated control), Sorghum (Sorghum [1]; 30 g of ai./ha): 95%; degree of damage, Gallium (Gallium; 250 g of ai./ha): 95%; degree of damage, Digitaria (Digitaria; 250 g of ai./ha): 95%; degree of damage to the plants (% damage vs untreated control), Solanum (Solanum; 30 g of ai./ha): 95%; degree of damage, Echinochloa (Echinochloa; 250 g of ai./ha): 90%; degree of damage, Stellaria (Stellaria; 250 g of ai./ha): 70%; degree of damage to the plants (% damage vs untreated control), Poa (Poa; 30 g of ai./ha): 95%; degree of damage, Sorghum (Sorghum [7]; 250 g of ai./ha): 95%; degree of damage, Amaranthus (Amaranthus; 250 g of ai./ha): 100%; degree of damage to the plants (% damage vs untreated control), Matricaria (Matricaria [8]; 30 g of ai./ha): 80%; degree of damage, Matricaria (Matricaria [9]; 250 g of ai./ha): 90%; degree of damage to the plants (% damage vs untreated control), Ambrosia (Ambrosia; 30 g of ai./ha): 80%
CCCOc1nn(C(=O)[N-]S(=O)(=O)c2c(C)cccc2C(=O)OC)c(=O)n1C.[Na+] [Example 144] | – | – | very strong activity against weeds | – | – | – | – | – | very strong activity against weeds | – | – | – | – | – | – | – | – | – | degree of damage to the plants (% damage vs untreated control), Sorghum (Sorghum [1]; 125 g of ai./ha): 95%; degree of damage, Gallium (Gallium; 250 g of ai./ha): 95%; degree of damage, Lolium (Lolium [10]; 250 g of ai./ha): 70%; degree of damage to the plants (% damage vs untreated control), Lolium (Lolium [5]; 125 g of ai./ha): 90%; degree of damage, Digitaria (Digitaria; 250 g of ai./ha): 95%; degree of damage to the plants (% damage vs untreated control), Solanum (Solanum; 125 g of ai./ha): 95%; degree of damage, Echinochloa (Echinochloa; 250 g of ai./ha): 95%; degree of damage, Stellaria (Stellaria; 250 g of ai./ha): 95%; degree of damage to the plants (% damage vs untreated control), Poa (Poa; 125 g of ai./ha): 90%; degree of damage, Sorghum (Sorghum [7]; 250 g of ai./ha): 95%; degree of damage, Amaranthus (Amaranthus; 250 g of ai./ha): 100%; degree of damage to the plants (% damage vs untreated control), Matricaria (Matricaria [8]; 125 g of ai./ha): 95%; degree of damage, Matricaria (Matricaria [9]; 250 g of ai./ha): 70%; degree of damage to the plants (% damage vs untreated control), Ambrosia (Ambrosia; 125 g of ai./ha): 80%
CCSc1nn(C(=O)NS(=O)(=O)c2c(C)cccc2C(=O)OC)c(=O)n1C1CC1 [Example 159] | – | 10 | very strong activity against weeds | – | 60 | – | 80 | 100 | very strong activity against weeds | – | 70 | 95 | – | 100 | – | 95 | 60 | – | degree of damage to the plants (% damage vs untreated control), Sorghum (Sorghum [1]; 30 g of ai./ha): 60%; degree of damage to the plants (% damage vs untreated control), Lolium (Lolium [5]; 30 g of ai./ha): 90%; degree of damage to the plants (% damage vs untreated control), Solanum (Solanum; 30 g of ai./ha): 95%; degree of damage to the plants (% damage vs untreated control), Poa (Poa; 30 g of ai./ha): 95%; degree of damage to the plants (% damage vs untreated control), Matricaria (Matricaria [8]; 30 g of ai./ha): 95%; degree of damage to the plants (% damage vs untreated control), Ambrosia (Ambrosia; 30 g of ai./ha): 95%
COC(=O)c1cccc(C)c1S(=O)(=O)NC(=O)n1nc(OC)n(C)c1=O [Example 162] | 90 | – | very strong activity against weeds | 95 | 70 | 95 | 80 | 90 | very strong activity against weeds | 95 | 80 | – | 95 | 60 | 80 | – | 90 | 0 | –
COC(=O)c1cccc(C)c1S(=O)(=O)NC(=O)n1nc(OC)n(C2CC2)c1=O [Example 164] | – | 20 | very strong activity against weeds | – | 60 | – | 80 | 95 | very strong activity against weeds | – | 95 | 100 | – | 100 | – | 90 | 70 | 0 | degree of damage to the plants (% damage vs untreated control), Sorghum (Sorghum [1]; 8 g of ai./ha): 90%; degree of damage to the plants (% damage vs untreated control), Lolium (Lolium [5]; 8 g of ai./ha): 95%; degree of damage to the plants (% damage vs untreated control), Solanum (Solanum; 8 g of ai./ha): 95%; degree of damage to the plants (% damage vs untreated control), Poa (Poa; 8 g of ai./ha): 95%; degree of damage to the plants (% damage vs untreated control), Matricaria (Matricaria [8]; 8 g of ai./ha): 70%; degree of damage to the plants (% damage vs untreated control), Ambrosia (Ambrosia; 8 g of ai./ha): 100%
CCCOc1nn(C(=O)NS(=O)(=O)c2c(C)cccc2C(=O)OC)c(=O)n1C1CC1 [Example 165] | – | 0 | very strong activity against weeds | – | 50 | – | 80 | 95 | very strong activity against weeds | – | 90 | 95 | – | 95 | – | 95 | 50 | 10 | degree of damage to the plants (% damage vs untreated control), Sorghum (Sorghum [1]; 8 g of ai./ha): 70%; degree of damage to the plants (% damage vs untreated control), Solanum (Solanum; 8 g of ai./ha): 80%; degree of damage to the plants (% damage vs untreated control), Poa (Poa; 8 g of ai./ha): 90%; degree of damage to the plants (% damage vs untreated control), Matricaria (Matricaria [8]; 8 g of ai./ha): 90%; degree of damage to the plants (% damage vs untreated control), Ambrosia (Ambrosia; 8 g of ai./ha): 80%
COC(=O)c1cccc(C)c1S(=O)(=O)NC(=O)n1nc(OC(C)C)n(C2CC2)c1=O [Example 166] | – | 40 | very strong activity against weeds | – | 70 | – | 70 | 95 | very strong activity against weeds | – | 90 | 95 | – | 100 | – | 95 | 50 | – | degree of damage to the plants (% damage vs untreated control), Sorghum (Sorghum [1]; 15 g of ai./ha): 70%; degree of damage to the plants (% damage vs untreated control), Lolium (Lolium [5]; 15 g of ai./ha): 90%; degree of damage to the plants (% damage vs untreated control), Solanum (Solanum; 15 g of ai./ha): 90%; degree of damage to the plants (% damage vs untreated control), Poa (Poa; 15 g of ai./ha): 90%; degree of damage to the plants (% damage vs untreated control), Matricaria (Matricaria [8]; 15 g of ai./ha): 95%; degree of damage to the plants (% damage vs untreated control), Ambrosia (Ambrosia; 15 g of ai./ha): 80%
